Data: paper PMC10374545, “A small molecule inhibitor of PTP1B and PTPN2 enhances T cell anti-tumor immunity” (Nature Communications, 2023)
“And” between values parts separate entries of the source, which are not always exact repeats. Identical values can stand only once.

Assays:
PTP1B = target: T1, PTP1B (Homo sapiens, UniProt P18031); assay: Mode of inhibition and Ki, Lineweaver-Burk kinetic analysis with DiFMUP; format: biochemical
T1 construct: PTP1B, residues 1-321; made in house; host or cells: E. coli BL21(DE3)
T1 sequence (P18031 1-321): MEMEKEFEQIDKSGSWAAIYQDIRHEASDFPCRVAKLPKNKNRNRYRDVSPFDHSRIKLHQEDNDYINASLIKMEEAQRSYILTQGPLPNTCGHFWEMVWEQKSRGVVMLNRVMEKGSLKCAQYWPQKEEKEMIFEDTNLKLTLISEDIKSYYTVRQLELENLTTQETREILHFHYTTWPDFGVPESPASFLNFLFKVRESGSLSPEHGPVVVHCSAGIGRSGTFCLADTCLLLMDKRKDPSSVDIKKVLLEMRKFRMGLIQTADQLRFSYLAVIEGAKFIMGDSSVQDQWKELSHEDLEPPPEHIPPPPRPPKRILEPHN
Method: To determine the mode of inhibition, the reactions were initiated by the addition of enzyme (final concentration for PTP1B and PTPN2 was 0.05 nM) to the reaction mixtures (0.2 ml) containing various concentrations of DiFMUP with different concentrations of the inhibitor. […] The fluorescence signal was measured using a CLARIOstar Plus Microplate Spectrophotometer (BMG Labtech) using excitation and emission wavelength of 340 nm and 450 nm, respectively. Data were fitted using Prism GraphPad 9.2.0. For selectivity studies, the inhibition assay for other PTPs were performed under the same conditions as used for PTP1B and PTPN2 except with different DiFMUP concentration corresponding to the Km of the PTP studied.

AT3-OVA mammary tumors = assay: Tumor-infiltrating lymphocytes in AT3-OVA tumors (flow cytometry); format: in vivo, mouse; set-up: GRZMB, single mice / GRZMB, individual mice: unit not given here
Method: Single-cell suspensions from spleens and lymph nodes were obtained as described previously. For the detection of intracellular cytokines and granzyme B, T cells were fixed and permeabilized with the BD Cytofix/Cytoperm kit according to the manufacturer’s instructions. Briefly, T cells were first surface stained with fluorophore-conjugated antibodies and then fixed followed by permeabilization on ice for 20 min. Fixed and permeabilized cells were stained for IFN-γ, TNF, and granzyme B for 45 min at room temperature. For the detection of intracellular FoxP3 the Foxp3/Transcription Factor Staining Buffer Set (eBioscience) was used according to the manufacturer’s instructions. Briefly, cells were fixed and permeabilized for 1 h on ice followed by intracellular staining at room temperature for 45 min. For the detection of serum cytokines, the BD CBA Mouse Inflammation Kit™ was used according to the manufacturers’ instructions.
Cells (1 × 10^6/10 µl) were stained with the specified antibodies on ice for 30 min in D-PBS supplemented with 2% FBS in the dark and analyzed using a Fortessa or Symphony A3 (BD Biosciences). Data was acquired using BD FACS DIVA Software v8.0.1 and analyzed using FlowJo10 (Tree Star Inc.) software. Lymphocytes were gated for eYFP^+ cells to discriminate between PTPN2 sufficient and PTPN2 negative cells after poly(I:C)-induced PTPN2-deletion in Mx1-Cre;Ptpn2^fl/fl mice. For cell quantification, known numbers of Flow-Count Fluorospheres (Beckman Coulter) were added to samples before analysis. Dead cells were excluded with propidium iodide (1 μg/ml; Sigma-Aldrich). Paraformaldehyde fixed dead cells were excluded with the LIVE/DEAD™ Fixable Near-IR Dead Cell Stain Kit (Thermo Fisher Scientific).
Tumor-bearing mice were sacrificed and tumors were excised and digested at 37 °C for 30 min using a cocktail of 1 mg/ml collagenase type IV (Worthington Biochemicals) and 0.02 mg/ml DNase I (Sigma-Aldrich) in DMEM supplemented with 2% (v/v) FBS. Cells were passed through a 70 μm cell strainer (BD Biosciences) twice and processed for flow cytometry. For assessing T cell activation, cells were surface stained with fluorophore-conjugated antibodies to CD62L, CD44, PD-1, and TIM-3. For the assessment of NK cells, B cells, myeloid-derived suppressor cells (MDSCs), dendritic cells (DCs), and tumor-associated macrophages, cells were surface stained with fluorophore-conjugated antibodies to NK1.1, TCRβ, CD19, CD11b, CD11c, F4/80, Ly6C and Ly6G. For the detection of intracellular cytokines TNF and IFNγ, T cells were stimulated with PMA (20 ng/ml; Sigma-Aldrich) and ionomycin (1 μg/ml; Sigma-Aldrich) in the presence of GolgiPlug™ and GolgiStop™ (BD Biosciences) for 4 h at 37 °C in complete T cell medium. For the intracellular detection of granzyme B, cells were processed untreated without the addition of BD GolgiPlug™ and BD GolgiStop™.

PTPN2 = target: T2, PTPN2 (Homo sapiens, UniProt P17706); assay: Jump-dilution assay; format: biochemical; conditions: 30 min preincubation, 50-fold dilution into 100 µM DiFMUP
T2 construct: PTPN2, residues 1-387; made in house; host or cells: E. coli BL21(DE3)
T2 sequence (P17706 1-387 isoform P17706-2): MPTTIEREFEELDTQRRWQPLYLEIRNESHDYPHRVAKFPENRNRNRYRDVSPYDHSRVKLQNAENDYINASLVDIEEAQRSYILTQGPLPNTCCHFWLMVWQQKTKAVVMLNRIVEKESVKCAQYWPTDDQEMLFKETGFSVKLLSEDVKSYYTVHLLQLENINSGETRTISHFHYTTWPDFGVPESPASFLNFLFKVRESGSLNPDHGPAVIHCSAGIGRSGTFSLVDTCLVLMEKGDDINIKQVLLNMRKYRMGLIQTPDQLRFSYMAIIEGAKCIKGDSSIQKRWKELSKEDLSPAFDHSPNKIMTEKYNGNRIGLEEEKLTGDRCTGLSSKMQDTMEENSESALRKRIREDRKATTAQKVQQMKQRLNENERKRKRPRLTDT
Method: The reaction was allowed to proceed for 10 min under room temperature and was quenched by addition of a 160 µM solution of bpV(Phen). The fluorescence signal was measured using a CLARIOstar Plus Microplate Spectrophotometer (BMG Labtech) using excitation and emission wavelengths of 340 nm and 450 nm, respectively. Data were fitted using Prism GraphPad 9.2.0.

[1] = C57BL/6, CMP-182 10 mg, n=8, Figure 5C
[2] = C57BL/6, CMP-182 10 mg, n=8, Figure 5D, in % (unit assumed)
[3] = C57BL/6, CMP-182 10 mg, n=8, Figure 5E
[4] = tumor-infiltrating CD8+ T cells, 10 mg/kg i.v., Fig. 3D raw data, listed as CMP-182, 10 mg/kg

For CC(C)(O)CCOc1ccc2cc(O)c(N3CC(=O)NS3(=O)=O)c(F)c2c1 [Compound 182, 5-(1-Fluoro-3-hydroxy-7-(3-hydroxy-3-methylbutoxy)naphthalen-2-yl)−1,2,5-thiadiazolidin-3-one 1,1-dioxide], the mode of inhibition (PTP1B) was “classic competitive inhibitor”, the “TILs in AT3-OVA tumors” value (AT3-OVA mammary tumors; 10 mg/kg i.v.) was “increased TILs” and the “accumulation of NK cells and B cells in AT3-OVA tumors” value (AT3-OVA mammary tumors; 10 mg/kg i.v.) was “increased the accumulation”. The “accumulation of Tregs and MDSCs in AT3-OVA tumors” value (AT3-OVA mammary tumors; 10 mg/kg i.v.) was “promoted the accumulation”, the “MDSCs, individual mice” value (AT3-OVA mammary tumors; C57BL/6, CMP-182 10 mg, n=7, Figure 5E) was 48747.9 and 7096.22 and 17089.1 and 45092.3 and 47664.4 and 17646.1 and 31607.3 and the “CD4 EM, individual mice” value (AT3-OVA mammary tumors; [1]) was 134557 and 47922.8 and 133424 and 44428.9 and 44587.5 and 55436.2 and 44822.8 and 60817.2. For the same compound, the “CD8 EM, individual mice” value (AT3-OVA mammary tumors; [1]) was 845401 and 186403 and 749030 and 169324 and 169003 and 192622 and 192657 and 178436, the “GRZMB, individual mice” value (AT3-OVA mammary tumors; C57BL/6, CMP-182 10 mg, n=8, Figure 5D) was 25.6 and 28.7 and 25.8 and 29.2 and 51.4 and 33.2 and 36 and 28.4 and the “IFNg TNF, individual mice” value (AT3-OVA mammary tumors; [2]) was 24.8 and 30.6 and 32 and 36.2 and 36.6 and 36.4 and 24 and 30.7. The “PD-1 TIM-3, individual mice” value (AT3-OVA mammary tumors; [2]) was 77.9 and 62.8 and 78.4 and 65.6 and 64.1 and 65.4 and 72.7 and 54.7, the “B cells, individual mice” value (AT3-OVA mammary tumors; [3]) was 170944 and 179918 and 255526 and 193357 and 175857 and 145133 and 135399 and 202633 and the “NK cells, individual mice” value (AT3-OVA mammary tumors; [3]) was 58558.9 and 29752.3 and 40599.7 and 35764.2 and 59533.6 and 52754.4 and 30362.6 and 33110.9. The “Tregs, individual mice” value (AT3-OVA mammary tumors; [3]) was 74115.4 and 20349.3 and 83872.7 and 21555.9 and 26849.8 and 29117.6 and 19831.6 and 35834.4, the “CD4 CM TILS (median)” value (AT3-OVA mammary tumors; Figure 3B, column B, n=8) was 11958, n=8 and the “CD4 EM TILS (median)” value (AT3-OVA mammary tumors; Figure 3B, column B, n=8) was 57270, n=8. The “CD8 CM TILS (median)” value (AT3-OVA mammary tumors; Figure 3B, column B, n=8) was 16228, n=8, the “CD8 EM TILS (median)” value (AT3-OVA mammary tumors; Figure 3B, column B, n=8) was 275442, n=8 and the “B cells TILS (median)” value (AT3-OVA mammary tumors; Figure 3C, column B, n=8) was 364105, n=8. The “MDSCs TILS (median)” value (AT3-OVA mammary tumors; Figure 3C, column B, n=8) was 8604, n=8, the “Nk cells TILS (median)” value (AT3-OVA mammary tumors; Figure 3C, column B, n=8) was 52917, n=8 and the “Tregs TILS (median)” value (AT3-OVA mammary tumors; Figure 3C, column B, n=8) was 35282, n=8. For the same compound, the “GRZB TILS (median)” value (AT3-OVA mammary tumors; Figure 3D, column B, n=8) was 35.20, n=8, the “IFNg TNF TILS (median)” value (AT3-OVA mammary tumors; Figure 3D, column B, n=8) was 31.60, n=8 and the “PD-1 Lag-3 TILS (median)” value (AT3-OVA mammary tumors; Figure 3D, column B, n=8) was 35.10, n=8. For the same compound, the “PD-1 TIM-3 TILS (median)” value (AT3-OVA mammary tumors; Figure 3D, column B, n=8) was 50.75, n=8, the “GRZMB, single mice” value (AT3-OVA mammary tumors; [4]) was 38.7 and 39 and 35.1 and 25.9 and 27.7 and 35.3 and 28.6 and 36.2 and the “PD-1 LAG-3, single mice” value (AT3-OVA mammary tumors; [4]) was 39.6 and 36.2 and 34 and 27 and 25.2 and 33.5 and 41.6. The “PD-1 TIM-3, single mice” value (AT3-OVA mammary tumors; tumor-infiltrating CD8+ T cells, 10 mg/kg i.v., Fig. 3D raw data, listed as CMP-182, 10 mg/kg, in % (unit assumed)) was 64.6 and 50.1 and 56.3 and 51.4 and 49.7 and 42.6 and 48.5 and 63 and the reversibility of inhibition (PTPN2) was “reversible”.
